Legend:
Assay type in all cases: in vivo
[1] = test system: Spodoptera exigua; test: Insecticidal activity against Spodoptera exigua, leaf disc dipping feeding method; settings: foliar, 72 h, 0.625 mg/L, 3 days after the administration, read-out: mortality rate against Spodoptera exigua
Procedure: After the compound to be determined was dissolved in a mixed solvent of acetone/methanol (1:1), it was diluted with water containing 0.1% (wt) Tween-80 to a desired concentration. […]
Determination method: the activity was tested by using a leaf disc dipping feeding method. Leaf discs were dipped in a drug solution for 10 s, and placed in a culture dish after being air-dried, there were 4 discs in each dish, and a filter paper was placed in the culture dish for moisture retention. 10 test insects of Spodoptera exigua were introduced to each dish, with 3 replicates.
They were placed in a light incubator for culture at a temperature of 25° C. and an illumination of 14hL:10hD. On the 1st, 2nd, and 3rd day after the administration, the number of dead Spodoptera exigua was investigated and the mortality rate was calculated.

[2] = test system: Franklinella occidentalis; test: Insecticidal activity against Franklinella occidentalis nymphs, sprayed bean leaves
Procedure: (§1) After the compound to be determined was dissolved in a mixed solvent of acetone/methanol (1:1), it was diluted with water containing 0.1% (wt) Tween-80 to a desired concentration.
(§2) Mythimna separata, Diamondback moth, Chilo suppressalis, Spodoptera exigua, Myzus persicae, and Franklinella occidentalis were used as targets, and the activity was tested by an Airbrush spray method.
Determination method: fresh bean leaves cultivated in a greenhouse were selected, a hand-held Airbrush sprayer was used to spray uniformly, each treatment was 1 mL, and after being air-dried naturally, the leaves were placed in a finger-shaped tube. Neat and healthy Franklinella occidentalis nymphs were introduced, there were 15 nymphs for each treatment, 3 replicates were set for the experiment, and water treatment was set as a blank control. After the treatment, the leaves were put into an indoor culture room for culture at 24° C., a relative humidity of 60-70%, and natural light. After 72 h, the number of live insects was investigated and the mortality rate was calculated.

[3] = test system: Myzus persicae; test: Insecticidal activity against Myzus persicae, Airbrush spray on cabbage leaves; settings: 50 mg/L, after 48 h, read-out: mortality rate against Myzus persicae
Procedure: as §1, §2
Determination method: a culture dish with a diameter of 6 cm was taken, the bottom of the dish was covered by a layer of filter paper, and an appropriate amount of tap water was added to moisturize the paper. Cabbage leaves with an appropriate size (the diameter was about 3 cm) and 15-30 aphids grown were cut from cabbage plants used to culture Myzus persicae, winged aphids and aphids on the front of the leave were removed, and it was placed in the culture dish while the back of the leave was upward. The pressure of airbrush spray treatment was 10 psi (about 0.7 kg/cm^2), the liquid spray volume was 0.5 mL, and there were 3 replicates for each treatment. After the treatment, the leave was put into an observation room for culture at 25° C. and a relative humidity of 60-70%. After 48 h, the number of live insects was investigated and the mortality rate was calculated.

[4] = test system: Chilo suppressalis; test: Insecticidal activity against Chilo suppressalis, sprayed rice stems; settings: 72 h, 0.625 mg/L, 3 days after the administration, 3rd-instar larvae, read-out: mortality rate against Chilo suppressalis
Procedure: as §1, §2
Determination method: 1) Preparation of rice seedlings: rice was cultured in a plastic small cup with a diameter of 4.5 cm and a height of 4 cm in a constant temperature room (the temperature was 26-28° C., the relative humidity was about 60-80%, and the illumination was 16hL:8hD), when the rice grown to a 4-5 leaf stage, robust and uniformly grown rice seedlings were selected for pharmaceutical treatment, and 3 replicates were set for each treatment. 2) Preparation of test insects: 3rd-instar larvae of Chilo suppressalis were continuously reared indoors. 3) Rice stems were sprayed and insects were introduced. A spray method was used to treat whole rice seedlings with uniform spray, and each treatment was 15 mL. Blank controls were treated firstly, and then the above operation was repeated in an order of experimental concentrations from low to high. After the spray treatment of the rice seedlings, they were placed in the shade to air-dry drug liquid, about 5 cm of the stem from a basal part of the stem was cut and fed to the test insects. A glass culture dish with a diameter of 90 mm was prepared, filter paper was placed on the bottom of the dish, then water was added to moisturize. About 5 rice stems were placed in each dish, 10 larvae were introduced, and the culture dish was closed with non-woven fabric and placed in the constant-temperature room for culture. 3 days after the administration, the number of residual live insects was investigated.

[5] = test system: cat flea; test: Insecticidal experiment on cat flea, thin film in culture dish; settings: Ctenocephalides felis, 72 h, read-out: mortality rate, cat flea
Procedure: 4 mg of the compound to be determined was dissolved in 40 mL of acetone to obtain an acetone solution with a concentration of 100 mg/L. 400 μL of the drug solution was applied on the bottom and sides of a culture dish with an inner diameter of 5.3 cm, then after acetone was evaporated, a thin film of the compound of the present invention was made on the inner wall of the culture dish. The inner wall of the culture dish used was 40 cm^2, and the treatment dosage was 1 μg/cm^2. 10 adult cat fleas (mixed male and female) were put into the dish, and it was stored in a constant-temperature room at 25° C. after being covered. The number of dead insects after 72 h was checked and the mortality rate was calculated. The experiment was repeated for 3 times.

[6] = test system: Mythimna separata; test: Insecticidal activity against Mythimna separata, Airbrush spray on maize leaf pieces; settings: 72 h, 0.05 mg/L, 3 days after the administration, 3rd-instar larvae, read-out: mortality rate against Mythimna separata
Procedure: as §1, §2
Determination method: maize leaves were cut into 2 cm leaf pieces, and the front and back of each leaf piece were sprayed under an Airbrush spray treatment pressure of 10 psi (approximate to 0.7 kg/cm^2) and with a spray volume of 0.5 mL. After drying in the shade, 10 3rd-instar larvae were inoculated for each treatment, and each treatment was repeated for 3 times. After the treatment, the leaf pieces were put into an observation chamber at 25° C. and with a relative humidity of 60% to 70%, and the number of living larvae was investigated 3 days after the administration of the compounds, and the mortality rates were calculated.

[7] = test system: Diamondback moth; test: Insecticidal activity against Diamondback moth, Airbrush spray on cabbage leaf discs; settings: Plutella xylostella, foliar, 72 h, 3 days after the administration; for mortality at 0.156 µg/mL: 0.156 mg/L, read-out: Mortality rate (%, 3 days after the administration) 0.156 mg/L; for mortality at 0.156 µg/mL / mortality at 0.313 µg/mL / mortality at 10 µg/mL: Diamondback moth; for mortality at 0.313 µg/mL: 0.313 mg/L, read-out: Mortality rate (%, 3 days after the administration) 0.313 mg/L; for mortality at 1.25 µg/mL: 1.25 mg/L, 3rd-instar larvae, read-out: mortality rate against Diamondback moth; for mortality at 10 µg/mL: 10 mg/L, read-out: Mortality rate (%, 3 days after the administration) 10 mg/L
Procedure: as §1, §2
Determination method: cabbage leaves were formed into leaf discs having a diameter of 2 cm using a puncher, and the front and back of each leaf disc were sprayed under an Airbrush spray treatment pressure of 10 psi (approximate to 0.7 kg/cm^2) and with a spray volume of 0.5 mL. After drying in the shade, 10 3rd-instar larvae were inoculated for each treatment, and each treatment was repeated for 3 times. After the treatment, the leaf discs were placed into an observation chamber at 25° C. and with a relative humidity of 60% to 70%, and the number of living larvae was investigated 3 days after the administration of the compounds, and the mortality rates were calculated.

SMILES | mortality at 0.625 µg/mL [1] | Mortality rate (%, 3 days after the administration) 10 mg/L [2] | Mortality rate (%, 3 days after the administration) 100 mg/L [2] | mortality at 50 µg/mL [3] | mortality at 0.625 µg/mL [4] | mortality at 1 µg/cm2 [5] | mortality at 0.05 µg/mL [6] | mortality at 0.156 µg/mL [7] | mortality at 0.313 µg/mL [7] | mortality at 1.25 µg/mL [7] | mortality at 10 µg/mL [7]
C=CCN(C(=O)c1ccccc1)c1cccc(C(=O)Nc2c(Br)cc(C(F)(C(F)(F)F)C(F)(F)F)cc2C(F)(F)F)c1F [Compound 3] | > 90% | 93.33% | 100% | > 90% | > 90% | > 90% | > 90% | 100% | 100% | > 90% | 100%
C=CCN(C(=O)c1ccc(F)cc1)c1cccc(C(=O)Nc2c(Br)cc(C(F)(C(F)(F)F)C(F)(F)F)cc2C(F)(F)F)c1F [Compound 7] | > 90% | 91.11% | 100% | > 90% | > 90% | > 90% | > 90% | 100% | 100% | > 90% | 100%
C=CCN(C(=O)c1ccc(F)cc1)c1cccc(C(=O)Nc2c(I)cc(C(F)(C(F)(F)F)C(F)(F)F)cc2C(F)(F)F)c1F [Compound 8] | > 90% | 88.89% | 100% | > 90% | > 90% | > 90% | > 90% | 100% | 100% | > 90% | 100%
C=CCN(C(=O)c1ccc(F)nc1)c1cccc(C(=O)Nc2c(Br)cc(C(F)(C(F)(F)F)C(F)(F)F)cc2C(F)(F)F)c1F [Compound 19] | > 90% | 100% | 100% | > 90% | > 90% | > 90% | > 90% | 100% | 100% | > 90% | 100%
C=CCN(C(=O)c1ccc(F)nc1)c1cccc(C(=O)Nc2c(I)cc(C(F)(C(F)(F)F)C(F)(F)F)cc2C(F)(F)F)c1F [Compound 20] | > 90% | 100% | 100% | > 90% | > 90% | > 90% | > 90% | 100% | 100% | > 90% | 100%
C#CCN(C(=O)c1ccccc1)c1cccc(C(=O)Nc2c(I)cc(C(F)(C(F)(F)F)C(F)(F)F)cc2C(F)(F)F)c1F [Compound 32] | > 90% |  |  | > 90% | > 90% | > 90% | > 90% |  |  | > 90% | 100%
C#CCN(C(=O)c1ccc(C#N)cc1)c1cccc(C(=O)Nc2c(Br)cc(C(F)(C(F)(F)F)C(F)(F)F)cc2C(F)(F)F)c1F [Compound 39] | > 90% |  |  | > 90% | > 90% | > 90% | > 90% |  |  | > 90% | 100%
C#CCN(C(=O)c1ccc(C#N)cc1)c1cccc(C(=O)Nc2c(I)cc(C(F)(C(F)(F)F)C(F)(F)F)cc2C(F)(F)F)c1F [Compound 40] | > 90% |  |  | > 90% | > 90% | > 90% | > 90% |  |  | > 90% | 100%
C#CCN(C(=O)c1ccc(C#N)nc1)c1cccc(C(=O)Nc2c(Br)cc(C(F)(C(F)(F)F)C(F)(F)F)cc2C(F)(F)F)c1F [Compound 51] | > 90% |  |  | > 90% | > 90% | > 90% | > 90% |  |  | > 90% | 100%
C#CCN(C(=O)c1ccc(C#N)nc1)c1cccc(C(=O)Nc2c(I)cc(C(F)(C(F)(F)F)C(F)(F)F)cc2C(F)(F)F)c1F [Compound 52] | > 90% |  |  | > 90% | > 90% | > 90% | > 90% |  |  | > 90% | 100%
C#CCN(C(=O)c1ccc(C(F)(F)F)nc1)c1cccc(C(=O)Nc2c(Br)cc(C(F)(C(F)(F)F)C(F)(F)F)cc2C(F)(F)F)c1F [Compound 55] | > 90% |  |  | > 90% | > 90% | > 90% | > 90% |  |  | > 90% | 100%
C#CCN(C(=O)c1ccc(C(F)(F)F)nc1)c1cccc(C(=O)Nc2c(I)cc(C(F)(C(F)(F)F)C(F)(F)F)cc2C(F)(F)F)c1F [Compound 56] | > 90% |  |  | > 90% | > 90% | > 90% | > 90% |  |  | > 90% | 100%

Source: patent US20240199552A1, “AMIDE COMPOUND AND USE THEREOF” (Metisa Biotechnology Co., Ltd, priority 2021, published 2024)
